# Source: patent US8952150B2, “Prostaglandin transporter inhibitors and uses thereof” (Albert Einstein College of Medicine of Yeshiva University, priority 2009, dated 2015)
# Target: rat PGT (Rattus norvegicus (Rat), UniProt Q00910)
# Assay: [3H]PGE2 uptake inhibition in MDCK cells stably transfected with rat PGT (percent inhibition and IC50)
# Assay type: cell-based
# Conditions: for Inh (% of Ctl) 0.5 μM: 0.5 μM compound; for Inh (% of Ctl) 0.5 μM / Inh (% of Ctl) 2.5 μM / Inh (% of Ctl) 5 μM / Inh (% of Ctl) 1 μM / Inh (% of Ctl) 10 μM / Inh (% of Ctl) 0.1 μM: inhibition of [3H]PGE2 uptake; for Inh (% of Ctl) 2.5 μM: 2.5 μM compound; for Inh (% of Ctl) 5 μM: 5 μM compound; for IC50: [3H]PGE2 uptake, MDCK cells stably transfected with rat PGT; for Inh (% of Ctl) 1 μM: 1 μM compound; for Inh (% of Ctl) 10 μM: 10 μM compound; for Inh (% of Ctl) 0.1 μM: 0.1 μM compound
# Protocol: MDCK cells stably transfected with rat PGT (Endo et al., 2002) were seeded at 15-20% confluence on 24-well plates. The day on which the cells were seeded was considered day 1. PGE2 uptake experiments were conducted on day 4. All of the PGE2 uptake experiments were conducted at room temperature. On day 4, cells were washed twice with Waymouth buffer (135 mM NaCl, 13 mM H-Hepes, 13 mM Na-Hepes, 2.5 mM CaCl2, 1.2 mM MgCl2, 0.8 mM MgSO4, 5 mM KCl, and 28 mM D-glucose). Then 200 μL of Waymouth buffer containing [^3H]PGE2 (purchased from Perkin Elmer) was added to each well. At the designed time, the uptake of [^3H]PGE2 was stopped by aspiration of uptake buffer; this was followed by immediate washing twice with 500 μL of chilled Waymouth buffer. Cells were then lysed with 100 μL lysis buffer containing 0.25% SDS and 0.05 N NaOH. 1.5 mL of scintillation solution was added to each well, and intracellular [^3H]PGE2 was counted by MicroBeta Counter.
# For preliminary testing of the compounds, 20 μL of Waymouth buffer containing the compound was added to each well; this was immediately followed by the addition of 180 μL of Waymouth buffer containing [^3H]PGE2. In each well, the total volume of uptake medium was 200 μL. Organic compounds were first dissolved in EtOH and then diluted in Waymouth buffer. The percent inhibition of [^3H]PGE2 uptake by compounds was calculated as [(uptakevehicle−uptakeinhibitor)÷(uptakevehicle)]×100.
# IC50 was calculated by fitting an equation of y=m1−m1*(m0/(m2+m0)).
Compound,Inh (% of Ctl) 0.5 μM,Inh (% of Ctl) 2.5 μM,Inh (% of Ctl) 5 μM,IC50,Inh (% of Ctl) 1 μM,Inh (% of Ctl) 10 μM,Inh (% of Ctl) 0.1 μM
O=C(NCCOCCOCCNc1nc(Nc2ccc(O)cc2)nc(Nc2ccc(C(=O)NCc3ccccc3-c3ccccc3)cc2)n1)c1ccccc1 [compound 86],70.7 % of Ctl,81.4 % of Ctl,86.4 % of Ctl,870 nM,,,50.0 % of Ctl
O=C(NCCOCCOCCNc1nc(Nc2ccc(O)cc2)nc(Nc2ccc(C(=O)NCc3cccc(-c4ccccc4)c3)cc2)n1)c1ccccc1 [compound 90],23.4 % of Ctl,60.6 % of Ctl,72.7 % of Ctl,,,,
O=C(NCCOCCOCCNc1nc(Nc2ccc(O)cc2)nc(Nc2ccc(C(=O)NCc3ccc(Cl)cc3)cc2)n1)c1ccccc1 [compound 91],72.1 % of Ctl,84.0 % of Ctl,88.0 % of Ctl,620 nM,,,60.8 % of Ctl
COc1ccc(CNC(=O)c2ccc(Nc3nc(NCCOCCOCCNC(=O)c4ccccc4)nc(Nc4ccc(O)cc4)n3)cc2)cc1 [compound 92],33.7 % of Ctl,71.3 % of Ctl,80.6 % of Ctl,,,,
O=C(NCCOCCOCCNc1nc(Nc2ccc(O)cc2)nc(Nc2ccc(C(=O)NCc3ccc4[nH]ccc4c3)cc2)n1)c1ccccc1 [compound 94],36.0 % of Ctl,66.7 % of Ctl,76.1 % of Ctl,,,,
O=C(NCCOCCOCCNc1nc(Nc2ccc(O)cc2)nc(Nc2ccc(C(=O)NCc3ccc(F)cc3)cc2)n1)c1ccccc1 [compound 99],61.8 % of Ctl,77.1 % of Ctl,89.4 % of Ctl,23.7 nM,,,81.3 % of Ctl
O=C(NCCOCCOCCNc1nc(Nc2ccc(O)cc2)nc(Nc2ccc(C(=O)NCc3ccc(Cl)cc3Cl)cc2)n1)c1ccccc1 [compound 100],56.4 % of Ctl,57.6 % of Ctl,86.0 % of Ctl,,,,41.1 % of Ctl
O=C(NCCOCCOCCNc1nc(Nc2ccc(O)cc2)nc(Nc2ccc(C(=O)NCc3cccc(C(F)(F)F)c3)cc2)n1)c1ccccc1 [compound 101],54.0 % of Ctl,71.0 % of Ctl,91.4 % of Ctl,,,,47.4 % of Ctl
Cc1ccc(CNC(=O)c2ccc(Nc3nc(NCCOCCOCCNC(=O)c4ccccc4)nc(Nc4ccc(O)cc4)n3)cc2)cc1 [compound 102],41.9 % of Ctl,65.7 % of Ctl,88.0 % of Ctl,,,,
O=C(NCCOCCOCCNc1nc(Nc2ccc(O)cc2)nc(Nc2ccc(C(=O)NCc3ccc(Cl)c(Cl)c3)cc2)n1)c1ccccc1 [compound 104],61.6 % of Ctl,87.8 % of Ctl,91.6 % of Ctl,,,,46.6 % of Ctl
O=C(NCCOCCOCCNc1nc(Nc2ccc(O)cc2)nc(Nc2ccc(C(=O)NCc3cc(Cl)cc(Cl)c3)cc2)n1)c1ccccc1 [compound 108],60.8 % of Ctl,78.3 % of Ctl,76.6 % of Ctl,,,,70.3 % of Ctl

# Continued, values first:
Inh (% of Ctl) 0.5 μM,Inh (% of Ctl) 2.5 μM,Inh (% of Ctl) 5 μM,IC50,Inh (% of Ctl) 1 μM,Inh (% of Ctl) 10 μM,Inh (% of Ctl) 0.1 μM,Compound
4.1 % of Ctl,10.4 % of Ctl,42.0 % of Ctl,609 nM,,,,O=C(NCCOCCOCCNc1nc(Nc2ccc(O)cc2)nc(Nc2ccc(C(=O)NCc3ccccc3)cc2)n1)c1ccccc1 [compound 83]
,,13.7 % of Ctl,,5.7 % of Ctl,37.1 % of Ctl,,O=C(NCCCCNc1nc(Nc2ccccc2)nc(Nc2ccc(O)cc2)n1)c1ccccc1 [compound 84]
,,12.2 % of Ctl,,7.6 % of Ctl,49.6 % of Ctl,,O=C(NCCCCCNc1nc(Nc2ccccc2)nc(Nc2ccc(O)cc2)n1)c1ccccc1 [compound 85]
71.8 % of Ctl,83.5 % of Ctl,90.6 % of Ctl,710 nM,,,55.1 % of Ctl,O=C(NCCOCCOCCNc1nc(Nc2ccc(O)cc2)nc(Nc2ccc(C(=O)NCc3cccc(Cl)c3)cc2)n1)c1ccccc1 [compound 87]
67.6 % of Ctl,82.6 % of Ctl,88.2 % of Ctl,820 nM,,,61.8 % of Ctl,COc1cccc(CNC(=O)c2ccc(Nc3nc(NCCOCCOCCNC(=O)c4ccccc4)nc(Nc4ccc(O)cc4)n3)cc2)c1 [compound 88]
33.8 % of Ctl,76.5 % of Ctl,86.0 % of Ctl,,,,,O=C(NCCOCCOCCNc1nc(Nc2ccc(O)cc2)nc(Nc2ccc(C(=O)NCc3cccc4ccccc34)cc2)n1)c1ccccc1 [compound 89]
24.6 % of Ctl,43.3 % of Ctl,51.1 % of Ctl,,,,,O=C(NCCOCCOCCNc1nc(Nc2ccc(O)cc2)nc(Nc2ccc(C(=O)NCc3ccc(-c4ccccc4)cc3)cc2)n1)c1ccccc1 [compound 93]
,,23.4 % of Ctl,,1.9 % of Ctl,50.4 % of Ctl,,O=C(NCCOCCOCCNc1nc(Nc2ccccc2)nc(Nc2ccc3[nH]nnc3c2)n1)c1ccccc1 [compound 95]
,,23.9 % of Ctl,,8.6 % of Ctl,51.9 % of Ctl,,O=C(CCCCCCNc1nc(Nc2ccccc2)nc(Nc2ccc(O)cc2)n1)Nc1ccccc1 [compound 96]
,,19.4 % of Ctl,,13.1 % of Ctl,30.8 % of Ctl,,O=C(CCCCCCNc1nc(Nc2ccccc2)nc(Nc2ccc(O)cc2)n1)NCc1ccccc1 [compound 97]
6.7 % of Ctl,24.9 % of Ctl,75.1 % of Ctl,,,,,O=C(NCCOCCNc1nc(Nc2ccc(O)cc2)nc(Nc2ccc(C(=O)NCc3ccc(Cl)cc3)cc2)n1)c1ccccc1 [compound 98]
38.3 % of Ctl,62.2 % of Ctl,83.7 % of Ctl,,,,,O=C(NCCOCCOCCNc1nc(Nc2ccc(O)cc2)nc(Nc2ccc(C(=O)Nc3ccccc3)cc2)n1)c1ccccc1 [compound 103]
64.6 % of Ctl,81 % of Ctl,92.45 % of Ctl,47.5 nM,,,67.9 % of Ctl,O=C(NCCOCCOCCNc1nc(Nc2ccc(O)cc2)nc(Nc2ccc(C(=O)NCc3cccc(F)c3)cc2)n1)c1ccccc1 [compound 105]
64.8 % of Ctl,68.8 % of Ctl,93.1 % of Ctl,,,,68.4 % of Ctl,O=C(NCCOCCOCCNc1nc(Nc2ccc(O)cc2)nc(Nc2ccc(C(=O)NCc3ccccc3Cl)cc2)n1)c1ccccc1 [compound 106]
56.3 % of Ctl,80.7 % of Ctl,91.3 % of Ctl,,,,65.2 % of Ctl,Cc1cccc(CNC(=O)c2ccc(Nc3nc(NCCOCCOCCNC(=O)c4ccccc4)nc(Nc4ccc(O)cc4)n3)cc2)c1 [compound 107]
